Data published in patent publication US7173014B2, “HIV-specific synthetic oligonucleotides and methods of their use” (priority 1997, dated 2007).

Legend:
[1] = tested on: fresh human peripheral blood mononuclear cells; assay: Toxicity in uninfected and HIV-1 infected fresh human PBMC (XTT, MTT, trypan blue, tritiated thymidine); format: cell-based
Procedure: In yet another experiment, the toxicity of Oligo 41 was evaluated in uninfected and HIV-1 infected fresh human peripheral blood mononuclear cells, using a variety of quantitative endpoints. Toxicity was evaluated using the tetrazolium dyes XTT or MTT, trypan blue cell and cell viability counting and the incorporation of tritiated thymidine. Two replicate assays were performed. In the first assay, Oligo 41 was used at a high test concentration of 50 μg/ml and toxicity was evaluated on day 7. […] A second assay was performed to further evaluate toxicity at higher compound concentration and with longer exposure to the compound.
For the PBL assay, PHA-P stimulated cells from at least two normal donors were pooled, set in fresh medium at 2×10^6/ml, and plated in the interior wells of a 96 well round bottom microplate at 50 μL/well. Test drug dilutions were prepared at a 2× concentration in microtiter tubes, and 100 μl of each concentration was placed in appropriate wells in a standard format. Fifty microliters of a predetermined dilution of virus stock was placed in each test well. […]
Tritiated thymidine incorporation was measured in parallel cultures at day 7. […] The filters were dried, placed in a scintillation vial with 1 ml of scintillation cocktail and incorporated radioactivity was quantified on a liquid scintillation counter (e.g., Packard Tri-Carb 1900 TR450).

[2] = tested on: monocyte-macrophage-tropic strains BaL and ADA; assay: Anti-HIV assay in fresh human monocyte-macrophages; format: cell-based, HIV-1
Procedure: In addition to these T-tropic strains, the activity of the compounds was also evaluated against the monocyte-macrophage strains BaL and ADA. Oligos 12 and 32 according to the invention, as well as Oligo 41 are active against low passage clinical T-tropic strains of HIV-1. The activity of the compounds varies from strain to strain. The compounds were not active against the monocyte-macrophage-tropic strains BaL and ADA.
For isolation of adherent cells, 3×10^6 non-PHA stimulated peripheral blood cells were resuspended in Hanks buffered saline (with calcium and magnesium) supplemented with 10% human AB serum. The cells were placed in a 24-well microtiter plate at 37° C. for 2 hours. Non-adherent cells were removed by vigorously washing six times. The adherent cells were cultured for 7 days in RPMI 1640 tissue culture medium with 15% fetal bovine serum. The cultures were carefully monitored for confluency during this incubation period. Infection of the cells was performed with the monocytotropic HIV-1 strains BaL or ADA and the matched pair of AZT-sensitive and AZT-resistant virus isolates. Each of these virus isolates was obtained from the NIAID AIDS Research and Reference Reagent Program. High titer pools of each of these viruses have been harvested from infected cultures of peripheral blood adherent cells and frozen in 1.0 ml aliquots at −80° C. Monocyte-macrophage monolayers were infected at an MOI of 0.1. Compounds to be evaluated in the monocyte-macrophage assay are added to the monolayers shortly before infection in order to maximize the potential for identifying active compounds.
At 2 days post-infection, the medium was decanted and the cultures washed twice with complete medium in order to remove excess virus. […] Control curves are generated in each assay to accurately quantify the amount of capsid protein in each sample. Data was obtained by spectrophotometric analysis at 450 nm using a plate reader (Molecular Devices Vmax). P24 concentrations were calculated from the optical density values by use of the Molecular Device software package Soft Max.

HIV-1 (IIIB, RF and SK1) = assay: XTT-based anti-HIV assay, laboratory strains of HIV-1; format: cell-based
Text: (§1) The initial experiment performed involved evaluation of Oligos 12, 32, and 41 against three laboratory strains of HIV-1 (IIIB, RF and SK1) and one strain of HIV-2 (ROD) in parallel with the positive control compound ddC in the XTT-based anti-HIV assay. All these oligonucleotides are active against both HIV-1 and HIV-2.
CEM-SS sells (AIDS Research and Reference Reagent Program, NIH) or other established human T cell lines used in these experiments were passaged in T-150 flasks for use in the assay. On the day preceding the assay, the cells were split 1:2 to assure they would be in an exponential growth phase at time of infection. On the day of assay the cells were washed twice with tissue culture medium and resuspended in fresh tissue cultures medium. Total cell and viability counting was performed using a hemacytometer and trypan blue dye exclusion. Cell viability was greater than 95% for the cells to be utilized in the assay. The cells were pelleted and resuspended at 2.5×10^4 cells per ml in tissue culture medium. […]
A pretitered aliquot of virus was removed from the freezer −80° C.) and allowed to thaw slowly to room temperature in a biological safety cabinet. The virus was resuspended and diluted into tissue culture medium such that the amount of virus added to each well in a volume of 50 μl will be the amount determined to give complete cell killing at 6 days post-infection. […]
After 6 days of incubation at 37° C. in a 5% CO2 incubator, the test plates were analyzed by staining with the tetrazolium dye XTT. XTT-tetrazolium is metabolized by the mitochondrial enzymes of metabolically active cells to a soluble formazan product, allowing the rapid quantitative analysis of the inhibition of HIV-induced cell killing by anti-HIV test substances. […]
XTT solution was prepared daily as a stock of 1 mg/ml in PBS. […] Adhesive plate sealers were used in place of the lids, the sealed plate was inverted several times to mix the soluble formazan product and the plate was read spectrophotometrically at A450 nm with a Molecular Devices Vmax plate reader.

HIV-2 (ROD) = assay: XTT-based anti-HIV assay, HIV-2; format: cell-based; conditions: XTT assay
Text: as §1
CEM-SS sells (AIDS Research and Reference Reagent Program, NIH) or other established human T cell lines used in these experiments were passaged in T-150 flasks for use in the assay. On the day preceding the assay, the cells were split 1:2 to assure they would be in an exponential growth phase at time of infection. On the day of assay the cells were washed twice with tissue culture medium and resuspended in fresh tissue cultures medium. Total cell and viability counting was performed using a hemacytometer and trypan blue dye exclusion. Cell viability was greater than 95% for the cells to be utilized in the assay. The cells were pelleted and resuspended at 2.5×10^4 cells per ml in tissue culture medium. Cells were added to the drug-containing plates in a volume of 50 μl.
A pretitered aliquot of virus was removed from the freezer −80° C.) and allowed to thaw slowly to room temperature in a biological safety cabinet. The virus was resuspended and diluted into tissue culture medium such that the amount of virus added to each well in a volume of 50 μl will be the amount determined to give complete cell killing at 6 days post-infection. In general the virus pools produced with the IIIB isolate of HIV required the addition of 5 μl of virus per well.
Each plate contained cell control wells (cells only), virus control wells (cells plus virus), drug toxicity control wells (cells plus drug only), drug colorimetric control wells (drug only) as well as experimental wells (drug plus cells plus virus).
After 6 days of incubation at 37° C. in a 5% CO2 incubator, the test plates were analyzed by staining with the tetrazolium dye XTT. XTT-tetrazolium is metabolized by the mitochondrial enzymes of metabolically active cells to a soluble formazan product, allowing the rapid quantitative analysis of the inhibition of HIV-induced cell killing by anti-HIV test substances. On day 6 post-infection plates were removed from the incubator and observed. The use of round bottom microtiter plates allows rapid macroscopic analysis of the activity of a given test compound by the evaluation of pellet size. The results of the macroscopic observations were confirmed and enhanced by further microscopic analysis.
XTT solution was prepared daily as a stock of 1 mg/ml in PBS. Phenazine methosulfate (PMS) solution was prepared at 15 mg/ml in PBS and stored in the dark at −20° C. XTT/PMS stock was prepared immediately before use by diluting the PMS 1:100 into PBS and adding 40 μl per ml of XTT solution. Fifty microliters of XTT/PMS was added to each well of the plate and the plate was incubated for an additional 4 hours at 37° C. Adhesive plate sealers were used in place of the lids, the sealed plate was inverted several times to mix the soluble formazan product and the plate was read spectrophotometrically at A450 nm with a Molecular Devices Vmax plate reader.

Oligo 41: oligonucleotide having SEQ ID NO:6; sequence not printed, not listed in TABLE 2 (UCGCACCCATCTCTCTCCUUC; chemistry not given here)
toxicity ([1]; high test concentration 50 μg/ml, day 7, any quantitative endpoint): No toxicity was detected
toxicity ([1]; high test concentration 150 μg/ml, exposure extended to 14 days): no toxicity was detected
activity against monocyte-macrophage-tropic strains BaL and ADA [2]: not active
activity against HIV-1 (HIV-1 (IIIB, RF and SK1)): active
level of activity against the HIV-2 strain ROD (HIV-2 (ROD); compared with the HIV-1 strains): enhanced level of activity
activity against HIV-2 (HIV-2 (ROD); strain ROD): active
